According to the NIST ThermoML archive (doi:10.1016/j.fluid.2015.06.016):
Numbers after ± are expanded uncertainties.

Details: 303.15 K; 101.33 kPa; Liquid; Vibrating tube method

mass density [kg/m3]	Structure (SMILES)
1257.13 ± 0.25	OCC(O)CO [glycerol]
1265.75 ± 0.45	O=S1(=O)CCCC1 [sulfolane]
722.439 ± 0.28	CCCCCCCCCC [decane]
1184.46 ± 1.2	NCCO.O=CO [2-hydroxyethylammonium formate]

Structure (SMILES)	mass density [kg/m3]
Cc1ccccc1 [toluene]	857.606 ± 0.18
